# Where “and” joins values, the source holds several entries; their conditions need not be identical. Equal values may be shown once. ± gives the uncertainty stated by the source.
# How the values were obtained:
# [1] = xn = mol fraction of the nth substance listed
compound,measurement,setting,value
CC(=O)O.OCCNCCO,viscosity,"293.15 K, 100 kPa",5750 ± 1200 mPa·s
same,viscosity,"293.15 K, 101.3 kPa",2115 ± 140 mPa·s
same,viscosity,"298.15 K, 101.3 kPa",1363 ± 82 mPa·s
same,viscosity,"303.15 K, 100 kPa",2248 ± 470 mPa·s
same,viscosity,"303.15 K, 101.3 kPa",905.4 ± 52 mPa·s
same,viscosity,"308.15 K, 101.3 kPa",617.3 ± 34 mPa·s
same,viscosity,"313.15 K, 100 kPa",1003 ± 210 mPa·s
same,viscosity,"313.15 K, 101.3 kPa",431.4 ± 22 mPa·s
same,viscosity,"318.15 K, 101.3 kPa",308.3 ± 15 mPa·s
same,viscosity,"323.15 K, 100 kPa",491.7 ± 100 mPa·s
same,viscosity,"323.15 K, 101.3 kPa",225 ± 11 mPa·s
CC(=O)OCCC(C)C,viscosity,"293.15 K, 101 kPa",0.86 ± 0.008 mPa·s
same,viscosity,"303.15 K, 101 kPa",0.743 ± 0.011 mPa·s and 0.7175 ± 0.0087 mPa·s and 0.7168 ± 0.0059 mPa·s
same,viscosity,"303.15 K, 101.3 kPa",0.6997 ± 0.07 mPa·s
same,viscosity,"313.15 K, 101 kPa",0.642 ± 0.011 mPa·s
CC(C)COCCO,viscosity,"298.15 K, 101 kPa",3.33 ± 0.1 mPa·s
CCC(=O)O.CCC(=O)[O-].CC[NH+](CC)CCO,viscosity,"293.15 K, 101 kPa",88.32 ± 4.5 mPa·s
same,viscosity,"298.15 K, 101 kPa",66.16 ± 3.4 mPa·s
same,viscosity,"303.15 K, 101 kPa",50.6 ± 2.6 mPa·s
same,viscosity,"308.15 K, 101 kPa",39.4 ± 2 mPa·s
same,viscosity,"313.15 K, 101 kPa",31.21 ± 1.6 mPa·s
same,viscosity,"318.15 K, 101 kPa",25.1 ± 1.3 mPa·s
same,viscosity,"323.15 K, 101 kPa",20.46 ± 1 mPa·s
CCCC(=O)[O-].[NH3+]CCO,viscosity,"293.15 K, 101 kPa",3077 ± 340 mPa·s
same,viscosity,"298.15 K, 101 kPa",2071 ± 240 mPa·s
same,viscosity,"303.15 K, 101 kPa",1434 ± 150 mPa·s
same,viscosity,"308.15 K, 101 kPa",1011 ± 100 mPa·s
same,viscosity,"313.15 K, 101 kPa",733.5 ± 69 mPa·s
same,viscosity,"318.15 K, 101 kPa",539.6 ± 48 mPa·s
same,viscosity,"323.15 K, 101 kPa",397.8 ± 34 mPa·s
CCCCCCCC/C=C\CCCCCCCC(=O)OCC,viscosity,"293.15 K, 100 kPa",6.414 ± 0.17 mPa·s
same,viscosity,"293.15 K, 101 kPa",6.413 ± 0.068 mPa·s
same,viscosity,"298.15 K, 100 kPa",5.653 ± 0.15 mPa·s
same,viscosity,"298.15 K, 101 kPa",5.653 ± 0.06 mPa·s
same,viscosity,"303.15 K, 100 kPa",4.986 ± 0.14 mPa·s
same,viscosity,"303.15 K, 101 kPa",4.986 ± 0.053 mPa·s
same,viscosity,"308.15 K, 100 kPa",4.435 ± 0.12 mPa·s and 4.424 ± 0.12 mPa·s
same,viscosity,"308.15 K, 101 kPa",4.424 ± 0.048 mPa·s
same,viscosity,"313.15 K, 100 kPa",3.919 ± 0.11 mPa·s
same,viscosity,"313.15 K, 101 kPa",3.918 ± 0.042 mPa·s
same,viscosity,"318.15 K, 100 kPa",3.554 ± 0.097 mPa·s
same,viscosity,"318.15 K, 101 kPa",3.554 ± 0.039 mPa·s
same,viscosity,"323.15 K, 100 kPa",3.214 ± 0.087 mPa·s
same,viscosity,"323.15 K, 101 kPa",3.214 ± 0.035 mPa·s
CCCCCCCCCCCCn1cc[n+](C)c1.O=S(=O)([N-]S(=O)(=O)C(F)(F)F)C(F)(F)F,viscosity,"298 K, 100 kPa",135.9 ± 17 mPa·s and 150.3 ± 17 mPa·s
same,viscosity,"303 K, 100 kPa",102.5 ± 11 mPa·s and 114.4 ± 12 mPa·s
same,viscosity,"308 K, 100 kPa",79.3 ± 8.1 mPa·s and 88.7 ± 8.2 mPa·s
same,viscosity,"313 K, 100 kPa",62.31 ± 6 mPa·s and 70.09 ± 6 mPa·s
same,viscosity,"318 K, 100 kPa",49.81 ± 4.5 mPa·s and 56.18 ± 4.5 mPa·s
same,viscosity,"323 K, 100 kPa",39.98 ± 3.5 mPa·s and 45.26 ± 3.5 mPa·s
CCCCn1cc[n+](C)c1C.O=S(=O)([N-]S(=O)(=O)C(F)(F)F)C(F)(F)F,viscosity,"293.15 K, 101.3 kPa",132.9 ± 3.2 mPa·s
same,viscosity,"303.15 K, 101.3 kPa",78.56 ± 1.7 mPa·s
same,viscosity,"308.15 K, 101.3 kPa",62.2 ± 1.3 mPa·s
same,viscosity,"313.15 K, 101.3 kPa",50.15 ± 1 mPa·s
same,viscosity,"318.15 K, 101.3 kPa",41.04 ± 0.86 mPa·s
same,viscosity,"323.15 K, 101.3 kPa",34.04 ± 0.71 mPa·s
CCCOCC(C)OCC(C)O (stereo not drawn),viscosity,"298.15 K, 101.33 kPa",4.001 ± 0.058 mPa·s
same,viscosity,"308.15 K, 101.33 kPa",2.986 ± 0.044 mPa·s
same,viscosity,"318.15 K, 101.33 kPa",2.271 ± 0.034 mPa·s
CCOP(=O)([O-])OCC.CC[N+]1(C)CCCC1,viscosity,"293.15 K, 100 kPa",440.8 ± 34 mPa·s
same,viscosity,"298.15 K, 100 kPa",306.8 ± 22 mPa·s
same,viscosity,"303.15 K, 100 kPa",220 ± 16 mPa·s
same,viscosity,"308.15 K, 100 kPa",164.1 ± 11 mPa·s
same,viscosity,"313.15 K, 100 kPa",121.4 ± 8.1 mPa·s
same,viscosity,"318.15 K, 100 kPa",92.72 ± 6.1 mPa·s
same,viscosity,"323.15 K, 100 kPa",72.98 ± 4.8 mPa·s
CCOP(OCC)OCC,viscosity,"298.15 K, 101 kPa",0.698 ± 0.012 mPa·s
CN(C)CCCN,viscosity,"293.15 K, 100 kPa",1.079 ± 0.055 mPa·s
same,viscosity,"303.15 K, 100 kPa",0.8997 ± 0.045 mPa·s
same,viscosity,"303.15 K, 101 kPa",0.941 ± 0.011 mPa·s
same,viscosity,"308.15 K, 101 kPa",0.8773 ± 0.0087 mPa·s and 0.862 ± 0.01 mPa·s
same,viscosity,"313.15 K, 100 kPa",0.7611 ± 0.038 mPa·s
same,viscosity,"313.15 K, 101 kPa",0.8098 ± 0.0078 mPa·s and 0.793 ± 0.01 mPa·s
same,viscosity,"318.15 K, 101 kPa",0.7531 ± 0.0073 mPa·s and 0.731 ± 0.009 mPa·s
same,viscosity,"323.15 K, 100 kPa",0.6553 ± 0.033 mPa·s
same,viscosity,"323.15 K, 101 kPa",0.7013 ± 0.0069 mPa·s and 0.678 ± 0.008 mPa·s
O=C(O)C1CCCCC1,viscosity,"310 K, 101 kPa",13.2 ± 0.2 mPa·s
same,viscosity,"320 K, 101 kPa",9.26 ± 0.15 mPa·s
CC(C)COCCO + O,viscosity,"[1]; 298.15 K, 101 kPa, x1 = 0.0037",0.9 ± 0.1 mPa·s
same,viscosity,"[1]; 298.15 K, 101 kPa, x1 = 0.016",1.2 ± 0.1 mPa·s
same,viscosity,"[1]; 298.15 K, 101 kPa, x1 = 0.0469",2.4 ± 0.1 mPa·s
same,viscosity,"[1]; 298.15 K, 101 kPa, x1 = 0.0611",2.7 ± 0.08 mPa·s
same,viscosity,"[1]; 298.15 K, 101 kPa, x1 = 0.11",3.65 ± 0.11 mPa·s
same,viscosity,"[1]; 298.15 K, 101 kPa, x1 = 0.177",4.27 ± 0.13 mPa·s
same,viscosity,"[1]; 298.15 K, 101 kPa, x1 = 0.263",4.4 ± 0.14 mPa·s
same,viscosity,"[1]; 298.15 K, 101 kPa, x1 = 0.764",3.7 ± 0.11 mPa·s
CCCC(=O)[O-].[NH3+]CCO + O,viscosity,"[1]; 293.15 K, 101 kPa, x1 = 0.0063",1.38 ± 0.074 mPa·s
same,viscosity,"[1]; 293.15 K, 101 kPa, x1 = 0.0132",1.662 ± 0.088 mPa·s
same,viscosity,"[1]; 293.15 K, 101 kPa, x2 = 0.8927",9.498 ± 0.51 mPa·s
same,viscosity,"[1]; 293.15 K, 101 kPa, x2 = 0.9254",5.73 ± 0.35 mPa·s
same,viscosity,"[1]; 293.15 K, 101 kPa, x2 = 0.9508",3.702 ± 0.21 mPa·s
same,viscosity,"[1]; 293.15 K, 101 kPa, x2 = 0.9707",2.46 ± 0.14 mPa·s
same,viscosity,"[1]; 293.15 K, 101 kPa, x2 = 0.9793",1.98 ± 0.11 mPa·s
same,viscosity,"[1]; 298.15 K, 101 kPa, x1 = 0.0063",1.248 ± 0.067 mPa·s
same,viscosity,"[1]; 298.15 K, 101 kPa, x1 = 0.0132",1.476 ± 0.078 mPa·s
same,viscosity,"[1]; 298.15 K, 101 kPa, x2 = 0.8927",7.89 ± 0.44 mPa·s
same,viscosity,"[1]; 298.15 K, 101 kPa, x2 = 0.9254",4.836 ± 0.26 mPa·s
same,viscosity,"[1]; 298.15 K, 101 kPa, x2 = 0.9508",3.21 ± 0.17 mPa·s
same,viscosity,"[1]; 298.15 K, 101 kPa, x2 = 0.9707",2.145 ± 0.12 mPa·s
same,viscosity,"[1]; 298.15 K, 101 kPa, x2 = 0.9793",1.776 ± 0.092 mPa·s
same,viscosity,"[1]; 303.15 K, 101 kPa, x1 = 0.0063",1.104 ± 0.062 mPa·s
same,viscosity,"[1]; 303.15 K, 101 kPa, x1 = 0.0132",1.32 ± 0.07 mPa·s
same,viscosity,"[1]; 303.15 K, 101 kPa, x2 = 0.8927",6.6 ± 0.38 mPa·s
same,viscosity,"[1]; 303.15 K, 101 kPa, x2 = 0.9254",4.182 ± 0.2 mPa·s
same,viscosity,"[1]; 303.15 K, 101 kPa, x2 = 0.9508",2.814 ± 0.14 mPa·s
same,viscosity,"[1]; 303.15 K, 101 kPa, x2 = 0.9707",1.878 ± 0.098 mPa·s
same,viscosity,"[1]; 303.15 K, 101 kPa, x2 = 0.9793",1.59 ± 0.083 mPa·s
N[C@@H](Cc1c[nH]c2ccccc12)C(=O)O + O,viscosity,"[1]; 303 K, 100 kPa, x1 = 0.087",0.934 ± 0.02 mPa·s
same,viscosity,"[1]; 303 K, 100 kPa, x1 = 0.0954",1 ± 0.021 mPa·s
same,viscosity,"[1]; 303 K, 100 kPa, x1 = 0.0971",1.018 ± 0.022 mPa·s
same,viscosity,"[1]; 303 K, 100 kPa, x1 = 0.0979",1.055 ± 0.023 mPa·s
same,viscosity,"[1]; 303 K, 100 kPa, x1 = 0.0983",1.077 ± 0.024 mPa·s
same,viscosity,"[1]; 303 K, 100 kPa, x1 = 0.0985",1.101 ± 0.026 mPa·s
